Data published in patent US20220161456A1, “S[…] PRESERVATIVE COMPOSITION COMPRISING POLYMERIC BETAINE AND CARBAMATE” (Troy Corporation, priority 2019, published 2022).

Tests used:
Type in all cases: cell-based
[1] = tested on: Trichoderma pseudokoningii (ATCC #26801), Aureobasidium pullulans (ATCC #9348), and a mixture of Aspergillus niger (ATCC #6275) and Penicillium funiculosum …; experiment: ASTM D4445-10 cumulative fungal growth of all three examined organisms and Synergy Index; conditions: for Σ Fungal Growth: cumulative score of the three sets of fungi; for % of Water-Only Control: Σ fungal growth normalized to water-only control
Procedure: (§1) Radiata pine lumber was machined to specimens with size of 7 mm by 20 mm in cross section and 70 mm long. Solutions prepared as described above were used to treat the machined Radiata pine specimens. The treatment was carried out in a 600 mL beaker. Two unused test pieces were placed on the bottom of the beaker, and the specimens, four in a layer, were placed on the previous layers until all the treatment replicates were included. The specimens were held down with a finger bearing down on a watch glass and submerged in treating solution for 15 seconds. After 15 seconds, the beaker was drained but with specimens still held down, and then was tightly covered with a piece of plastic sheet to prevent drying and was stored overnight. Similarly, untreated control specimens were treated with water.
(§2) One day after treatment, duplicate wood specimens from the same treatment group were tested according to ASTM D4445-10 methodology. The wood specimens were checked for inhibition against sapstain fungi and molds Trichoderma pseudokoningii (ATCC #26801), Aureobasidium pullulans (ATCC #9348), and a mixture of Aspergillus niger (ATCC #6275) and Penicillium funiculosum (ATCC #11797). This method is described below:
(§3) (1) Placed duplicate wood specimens on top of polyester mesh and laid on a stack of four (4) filter paper squares (approximately 2 inches by 2.5 inches) presoaked in 5 mL sterile DI water.
(§4) (2) Prepared fungal mixture from freshly grown slants of each test organism.
(§5) (3) Added 2 mL of DI water and 0.1% Tween 20 to the slant and inverted to mix.
(§6) (4) Poured the concentrate into a total volume of 16 mL.
(§7) (5) Enumerated the stock via hemocytometer and adjusted to […] with additional DI water.
(§8) (6) Inoculated wood specimens via applying 0.25 mL of one of the three separate fungal suspensions to the top of the wood and distributing evenly on the surface with an L-spreader.
(§9) (7) Placed inoculated wood specimens in a humidity chamber for one month at 95% or larger relative humidity and 28° C.
(§10) (8) Rated wood specimens with a rating from “0” (No Growth) to “5” (Complete Growth).
In order to show more directly the possible synergy in the invention, the results are presented by applying the Synergy Index (S.I.), which is analyzed using the following equation:
FGA=Cumulative fungal growth scores of all three examined organisms of compound […], acting alone
FGA′=Cumulative fungal growth scores of all three examined organisms of compound […], in the mixture
FGB=Cumulative fungal growth scores of all three examined organisms of compound […], acting alone
FGB′=Cumulative fungal growth scores of all three examined organisms of compound […], in the mixture
When SI is greater than 1, antagonism is indicated. […] When SI equals to 1, the action of biocides is additive.
as §1, with “treat” for “treat the”
as §2, with “D4445-10(2019)” for “D4445-10”, “This method is described below:” left out

[2] = tested on: mixture of Aspergillus niger (ATCC #6275) and Penicillium funiculosum (ATCC #11797); experiment: ASTM D4445-10 fungal growth on dip-treated Radiata pine specimens; conditions: rating 0 (No Growth) to 5 (Complete Growth), one month, 28° C.
Procedure: as §1, §2, §3, §4, §5, §6, §7, §8, §9, §10
as §1, with “treat” for “treat the”
as §2, with “D4445-10(2019)” for “D4445-10”, “This method is described below:” left out

[3] = tested on: Trichoderma pseudokoningii (ATCC #26801); experiment: as above; conditions: rating 0 (No Growth) to 5 (Complete Growth), one month, 28° C.
Procedure: as §1, §2, §3, §4, §5, §6, §7, §8, §9, §10
as §1, with “treat” for “treat the”
as §2, with “D4445-10(2019)” for “D4445-10”, “This method is described below:” left out

[4] = tested on: Aureobasidium pullulans (ATCC #9348); experiment: as above; conditions: rating 0 (No Growth) to 5 (Complete Growth), one month, 28° C.
Procedure: as §1, §2, §3, §4, §5, §6, §7, §8, §9, §10
as §1, with “treat” for “treat the”
as §2, with “D4445-10(2019)” for “D4445-10”, “This method is described below:” left out

[5] = 2400 ppm treatment solution, Example 2
[6] = 2400 ppm treatment solution, Example 3
[7] = 4800 ppm treatment solution, Example 2
[8] = 2400 ppm treatment solution, Example 2, eight replicates
[9] = 2400 ppm treatment solution, Example 3, ten replicates
[10] = 4800 ppm treatment solution, Example 2, eight replicates

Row | Compound | Σ Fungal Growth [1, 5] | % of Water-Only Control [1, 5] | Σ Fungal Growth [1, 6] | % of Water-Only Control [1, 6] | Σ Fungal Growth [1, 7] | % of Water-Only Control [1, 7] | Average Scoring A.n. + P.f. [2, 8] | Average Scoring A.n. + P.f. [2, 9] | Average Scoring A.n. + P.f. [2, 10] | Average Scoring T.p. [3, 8] | Average Scoring T.p. [3, 9] | Average Scoring T.p. [3, 10] | Average Scoring A.p. [4, 8] | Average Scoring A.p. [4, 9] | Average Scoring A.p. [4, 10]
1 | didecyl bis(hydroxyethyl) ammonium borate [DPAB] | 10.8 | 77.5% | 7.6 | 58.46% | 7.6 | 55.0% | 5.0 | 2 | 4.9 | 2.5 | 2 | 2.0 | 3.3 | 3.6 | 0.8
2 | CCCCNC(=O)OCC#CI [IPBC, 3-iodo-2-propynyl butyl carbamate] | 2.6 | 18.9% | 3.8 | 29.23% | 2.8 | 19.8% | 0.0 | 2.1 | 0.0 | 2.6 | 1.7 | 2.8 | 0.0 | 0 | 0.0
